Each structure is given as a SMILES string.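 Compound exposure: 48 hours, 5 concentrations, 96-well plates. GI50: concentration for 50% inhibition of growth. At the TGI there is no net growth.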

These results are taken from PubChem BioAssay (NCI).

What all share (assay): DTP human tumour cell line panel, 48 h
Test [1] concerns NCI-H460 lung.
Test [2] concerns U251 CNS.
In test [3] the test system is HL-60(TB) leukemia.
In test [4] the test system is HCC-2998 colon.
In test [5] the test system is A498 renal.
Test [6] concerns RXF 393 renal.
Test [7] deals with 786-0 renal.
In test [8] the test system is UACC-62 melanoma.
In test [9] the test system is IGROV1 ovarian.
In test [10] the test system is LOX IMVI melanoma.

Regarding `CCOC(=O)c1c(C)nc2c(c1N)CC(=O)N2CCc1ccccc1`, the GI50 (as a rule, the concentration giving 50% growth inhibition) in test [1] is 1.77 µM; in test [2], 0.997 µM; in test [3], 0.374 µM; in test [4], 3.49 µM; in [5], 3.2 µM; in test [6] it was 4.05 µM. For the same compound, the GI50 in [7] is 0.466 µM; in test [8], 0.629 µM; in test [9], 1.26 µM; in test [10] it was 0.384 µM. For the same compound, the TGI (usually the concentration at which net growth stops) in test [1] turned out to be 14.1 µM; in test [2], 18.4 µM; in [3], 13.1 µM; in [4] it was 12.8 µM; in test [5], 10.8 µM; in test [6], 15.3 µM. Further, the TGI worked out at 17.1 µM in test [7], 17.2 µM in [8], 13 µM in [9] and 14.7 µM in test [10].

For `Cc1ccc(C(SCC(N)C(=O)O)(c2ccccc2)c2ccccc2)cc1` (stereo not given), the GI50 in [1] was 0.0718 µM; in test [2], 0.042 µM; in [3], 0.0878 µM; in test [4] it was 0.246 µM; in test [5] it was 1.02 µM; in [6], 0.103 µM. The GI50 in test [7] is 0.175 µM; in test [8] it was 0.0561 µM; in test [9], 0.141 µM; in [10] it was 0.247 µM. For the same compound, the TGI is 14.8 µM in test [1]; > 40.1 µM in [2]; 15.2 µM in test [4]; > 64.7 µM in test [5]; > 100 µM in test [6]; 2.43 µM in test [7]. Also, the concentration for total growth inhibition (TGI) is > 59.4 µM in test [8], > 71.3 µM in [9] and 21.6 µM in test [10].

`COc1ccc(-c2cc(-c3cc(Cl)cc(Br)c3O)[nH]c(=O)n2)cc1`: the TGI in test [1] came out at 34.6 µM; in test [2] it was 31.3 µM; in test [3] it was 48.5 µM; in test [4] it was 45.5 µM; in test [5], 31.4 µM; in test [6], 31.7 µM. Besides, the TGI turned out to be 32 µM in test [7], 29.4 µM in test [8], 52.4 µM in test [9] and 33.2 µM in test [10].

In the case of `O=[N+]([O-])c1ccccc1C=NC12CC3CC(CC(C3)C1)C2`, the total growth inhibition concentration (TGI) in test [1] is > 100 µM; in [2], > 100 µM; in test [3] it was 57.1 µM; in [4], > 100 µM; in [5] it was > 100 µM; in [6], > 100 µM. The concentration for total growth inhibition (TGI) in test [7], in test [8], in [9] and in [10] was > 100 µM each time.

`CCCCN[C@H]1C2C3CC4C5CC(C42)C1(C)C53` (stereo not given in full): the TGI in [1], in test [2], in [3], in [4], in test [5] and in test [6] was > 100 µM throughout. Further, the concentration for total growth inhibition (TGI) in [7], in [8], in test [9] and in [10] was > 100 µM throughout.

With `O=C(CC1(O)C(=O)Nc2ccccc21)c1ccc(O)cc1` (stereo not given), the concentration for total growth inhibition (TGI) in test [1], in test [2], in test [3], in test [4], in test [5] and in test [6] was > 100 µM throughout. For the same compound, the TGI in [7], in test [8], in test [9] and in test [10] was > 100 µM in each case.

For `CCC(=O)Nc1ccccc1C#C/C=C\C#Cc1ccccc1C(F)(F)F`, the GI50 in test [1] was 1.63 µM; in test [2], 2.42 µM; in [3], 1.18 µM; in test [4] it was 4.19 µM; in [5], 1.68 µM; in test [6], 2.84 µM. Moreover, the GI50 is 2.37 µM in [7], 2.38 µM in [8], 3.39 µM in test [9] and 5.14 µM in [10]. Also, the concentration for total growth inhibition (TGI) in [1] is 5.88 µM; in test [2], > 40.7 µM; in [3] it was > 10.4 µM; in test [4] it was 14.9 µM; in [5], 10.7 µM; in [6], > 12.7 µM. The concentration for total growth inhibition (TGI) in test [7] was 23.2 µM; in [8] it was > 50 µM; in [9], > 18.9 µM; in test [10] it was > 50 µM.

In the case of `C#CC1(O)c2ccccc2C(=O)c2ccccc21`, the TGI in [1], in test [2], in test [3], in test [4], in test [5] and in [6] was > 100 µM each time. In addition, the concentration for total growth inhibition (TGI) in test [7], in test [9] and in test [10] was > 100 µM in each case.

For the compound `Clc1ccc2nc(-c3ccccc3)nc(Cl)c2c1`, the total growth inhibition concentration (TGI) in [1] is > 100 µM; in test [2] it was > 100 µM; in test [3] it was 31.1 µM; in [4] it was > 100 µM; in [5], > 100 µM; in test [6] it was 48.6 µM. Besides, the TGI in [7], in [8] and in test [9] was > 100 µM throughout.

For the compound `C=C(CC(=O)O)C(=O)O` (tested in a mixture with another compound), the GI50 in [1] was > 50 µg/mL; in test [2] it was > 50 µg/mL; in test [3], 8.94 µg/mL; in [5] it was > 50 µg/mL; in [6] it was 10.2 µg/mL; in test [7], > 50 µg/mL. For the same compound, the GI50 in [8], in [9] and in test [10] was > 50 µg/mL throughout. Moreover, the TGI in [1] is > 50 µg/mL; in [2] it was > 50 µg/mL; in test [3], 17.2 µg/mL; in [5], > 50 µg/mL; in [6], > 50 µg/mL; in [7], > 50 µg/mL. Further, the total growth inhibition concentration (TGI) in test [8], in test [9] and in test [10] was > 50 µg/mL throughout.

Regarding `Cn1c2ccccc2c2c3[nH][nH]c(=O)c3c3c4ccccc4[nH]c3c21`, the GI50 was 1.57 µM in test [1]; 2.09 µM in test [2]; 2.46 µM in [3]; 2.74 µM in [4]; 1.61 µM in [5]; 1.51 µM in [6]. Also, the GI50 is 3.06 µM in [7], 2.07 µM in [8] and 1.09 µM in test [10]. The TGI in [1] was 10.8 µM; in [2], 21.1 µM; in test [3], 6 µM; in [4] it was 8.1 µM; in test [5] it was 5.79 µM; in [6] it was 3.57 µM. Besides, the total growth inhibition concentration (TGI) in [7] was 31.6 µM; in test [8], 5.81 µM; in test [10], 6.62 µM.

As to `NC(N)=Nc1nc2ccc([N+](=O)[O-])cc2[nH]1`, the TGI in test [1], in test [2], in test [3], in test [5], in test [6] and in [7] was > 100 µM in each case. Moreover, the TGI in [8], in test [9] and in [10] was > 100 µM each time.

For `Oc1ccc(CCNCc2cc3c(cc2Br)OCO3)cc1`, the concentration for total growth inhibition (TGI) in [1] is > 100 µM; in test [2], > 100 µM; in test [3], 84.4 µM; in test [5], > 100 µM; in test [6] it was > 100 µM; in test [7], > 100 µM. Further, the TGI in [8], in [9] and in test [10] was > 100 µM in each case.

Regarding `CNS(=O)(=O)NN(C)S(=O)(=O)c1ccc2ccccc2c1`, the concentration for total growth inhibition (TGI) in [2], in test [3], in test [4], in test [5], in test [6] and in test [7] was > 100 µM throughout. The total growth inhibition concentration (TGI) in test [8], in test [9] and in [10] was > 100 µM throughout.

For the compound `Cc1cc(N2CCCC2)nc(NCc2cc(Nc3ccnc4cc(Cl)ccc34)ccc2F)n1`, the GI50 in test [1] is 1.23 µM; in [2], 1.5 µM; in test [3] it was 1.99 µM; in test [4] it was 1.13 µM; in test [5], 1.04 µM; in [6], 1.43 µM. The GI50 is 1.34 µM in [7] and 1.12 µM in [10]. The TGI in test [1] was found to be 2.86 µM; in test [2], 2.84 µM; in test [3] it was 4.49 µM; in [4], 2.45 µM; in [5], 2.54 µM; in test [6], 2.87 µM. The TGI in [7] turned out to be 2.84 µM; in test [10], 2.48 µM.

On to `CCCCN(CCCC)CCC(O)c1cc2c(Cl)cc(Cl)cc2c2cc(C(F)(F)F)ccc12` (stereo not given), for which the concentration for total growth inhibition (TGI) worked out at 25.5 µM in [1]; 31.7 µM in [2]; 21.8 µM in test [3]; 24.2 µM in test [4]; 13.8 µM in [5]; 25.7 µM in [7]. Besides, the TGI in test [8] worked out at 29.9 µM; in test [9], 26.5 µM; in [10], 21.9 µM.

For the compound `CC1=C(Cl)C=CP(=O)(OC(C)C)C1` (stereo not given), the total growth inhibition concentration (TGI) in test [1], in [2], in test [3], in test [4], in [5] and in test [6] was > 100 µM throughout. Further, the TGI in test [7], in [8] and in [9] was > 100 µM in each case.

For `O=C(Nc1cc(Cl)cc(Cl)c1)/C(Cc1nc2ccccc2[nH]c1=O)=N/NC(=O)c1ccncc1`, the TGI in test [1], in [2], in test [3], in [4], in test [5] and in test [7] was > 100 µM throughout. The total growth inhibition concentration (TGI) in [8], in test [9] and in test [10] was > 100 µM throughout.

`Cc1ccc(NC(=S)SCCC(=O)O)cc1`: the TGI in [1], in test [2], in [3], in [4], in test [5] and in test [6] was > 100 µM each time. The concentration for total growth inhibition (TGI) in [7] and in test [10] was > 100 µM throughout.

For the compound `O=S(=O)([O-])[O-].[Cl-].[NH2-].[NH2-].[NH2-].[NH2-].[Ru+3].c1ccncc1`, the TGI in test [1], in test [2], in [3], in test [4], in [5] and in test [7] was > 100 µM in each case. Also, the total growth inhibition concentration (TGI) in [8], in test [9] and in test [10] was > 100 µM in each case.

In the case of `C[C@]1(Cn2ccnn2)C(C(=O)O)N2C(=O)CC2S1(=O)=O` (stereo not given in full), the GI50 in test [1], in test [2], in test [3], in [4], in test [5] and in test [6] was > 100 µM each time. Moreover, the GI50 in test [7], in test [8] and in [9] was > 100 µM in each case. For the same compound, the TGI in [1], in [2], in test [3], in [4], in test [5] and in test [6] was > 100 µM throughout. For the same compound, the concentration for total growth inhibition (TGI) in [7], in [8] and in test [9] was > 100 µM in each case.

Consider `Cc1ccn2c(CCc3nnc4cc(C)ccn34)nnc2c1`, for which the TGI in test [1] was > 100 µM; in test [2], > 100 µM; in test [3], 0.623 µM; in test [5], > 100 µM; in test [6], > 100 µM; in [7] it was > 100 µM. The TGI in test [8] and in test [9] was > 100 µM each time.

As to `O=S1(=O)CCCS(=O)(=O)C(c2ccccc2)=C1c1ccccc1`, the TGI is > 100 µM in [1]; > 100 µM in test [2]; 44.6 µM in test [3]; 32.4 µM in test [4]; > 100 µM in [5]; > 100 µM in test [7]. In addition, the TGI in test [8], in test [9] and in [10] was > 100 µM in each case.
